Holding throughout (assay): Kinobeads competition binding, HeLa Placenta lysate mix
Common to all, as to design: endogenous in cells
Holding throughout (settings): 10 μM free compound

In one experiment the target is AAK1 (Homo sapiens, UniProt Q2M2I8). As to the method: (§1) To one aliquot of cell lysate 10 μM of the free compound (FIG. 3, CZC31326) was added and allowed to bind to proteins in the lysate. Then the affinity matrix with the immobilized compound was added to capture proteins that were not interacting with the previously added free compound. Beads were separated from the lysate and bead bound proteins were eluted in SDS sample buffer and subsequently separated by SDS-Polyacrylamide gel electrophoresis (FIG. 10). Suitable gel bands were cut out and subjected to in-gel proteolytic digestion with trypsin. The second lysate aliquot was processed identically, however no free compound was added (DMSO solvent control). Peptides originating from samples 1 and 2 were labeled with iTRAQ reagents (iTRAQ 114 and iTRAQ 117) and the combined samples were analyzed with a nano-flow liquid chromatography system coupled online to a tandem mass spectrometer (LC-MS/MS) experiment followed by iTRAQ reporter ion quantification in the MS/MS spectra as described in Example 2.

In another experiment the target is DNAPK (Homo sapiens, UniProt P78527). The protocol: as §1
For the next experiment, the target named is GSK3A (Homo sapiens, UniProt P49840). The protocol:
as §1

The next experiment has as its target T1, IKKe (Homo sapiens, UniProt Q14164).
T1 sequence (Q14164 1-716): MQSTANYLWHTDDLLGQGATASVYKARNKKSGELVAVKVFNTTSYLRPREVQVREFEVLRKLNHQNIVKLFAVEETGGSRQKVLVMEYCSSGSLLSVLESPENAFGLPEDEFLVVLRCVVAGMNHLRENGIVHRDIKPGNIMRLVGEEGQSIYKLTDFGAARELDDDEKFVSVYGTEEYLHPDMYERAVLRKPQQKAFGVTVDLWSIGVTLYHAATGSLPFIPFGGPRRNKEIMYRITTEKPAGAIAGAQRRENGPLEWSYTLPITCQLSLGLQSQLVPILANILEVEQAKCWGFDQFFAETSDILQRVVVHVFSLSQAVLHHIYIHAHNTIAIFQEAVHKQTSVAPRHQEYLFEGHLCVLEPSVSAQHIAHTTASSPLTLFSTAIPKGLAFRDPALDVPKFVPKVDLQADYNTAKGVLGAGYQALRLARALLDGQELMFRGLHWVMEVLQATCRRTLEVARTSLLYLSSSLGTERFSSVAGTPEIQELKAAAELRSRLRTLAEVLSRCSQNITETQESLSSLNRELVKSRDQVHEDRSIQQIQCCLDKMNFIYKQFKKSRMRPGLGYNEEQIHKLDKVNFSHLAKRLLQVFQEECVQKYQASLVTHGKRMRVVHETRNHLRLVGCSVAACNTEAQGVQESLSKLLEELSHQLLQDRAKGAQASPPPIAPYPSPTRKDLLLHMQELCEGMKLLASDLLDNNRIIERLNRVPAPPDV
As to the method:
as §1

In a further experiment the target is MAP2K6 (Homo sapiens, UniProt P52564). As to the method: as §1
The target in a further experiment is MAP3K4 (Homo sapiens, UniProt Q9Y6R4). The protocol: as §1
The next experiment has as its target T2, NEK3 (Homo sapiens, UniProt P51956).
T2 sequence (P51956 1-506): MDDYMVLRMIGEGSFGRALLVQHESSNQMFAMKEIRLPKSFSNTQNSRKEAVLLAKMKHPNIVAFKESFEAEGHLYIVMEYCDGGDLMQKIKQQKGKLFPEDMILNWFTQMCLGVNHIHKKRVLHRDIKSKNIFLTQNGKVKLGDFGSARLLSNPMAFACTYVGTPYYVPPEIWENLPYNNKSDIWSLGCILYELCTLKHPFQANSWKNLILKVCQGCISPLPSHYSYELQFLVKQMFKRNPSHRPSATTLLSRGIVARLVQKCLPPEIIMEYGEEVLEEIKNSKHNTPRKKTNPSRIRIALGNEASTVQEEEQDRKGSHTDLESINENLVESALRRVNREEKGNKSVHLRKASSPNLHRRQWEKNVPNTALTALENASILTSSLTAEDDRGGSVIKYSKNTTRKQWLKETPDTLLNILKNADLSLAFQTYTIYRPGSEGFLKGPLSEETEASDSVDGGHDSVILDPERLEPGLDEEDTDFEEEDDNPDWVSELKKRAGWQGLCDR
As to the method:
as §1

Another experiment deals with PAK4 (Homo sapiens, UniProt O96013). As to the method:
as §1

In a further experiment the target is T3, PIP5K2C (Homo sapiens, UniProt Q8TBX8).
T3 sequence (Q8TBX8 1-421): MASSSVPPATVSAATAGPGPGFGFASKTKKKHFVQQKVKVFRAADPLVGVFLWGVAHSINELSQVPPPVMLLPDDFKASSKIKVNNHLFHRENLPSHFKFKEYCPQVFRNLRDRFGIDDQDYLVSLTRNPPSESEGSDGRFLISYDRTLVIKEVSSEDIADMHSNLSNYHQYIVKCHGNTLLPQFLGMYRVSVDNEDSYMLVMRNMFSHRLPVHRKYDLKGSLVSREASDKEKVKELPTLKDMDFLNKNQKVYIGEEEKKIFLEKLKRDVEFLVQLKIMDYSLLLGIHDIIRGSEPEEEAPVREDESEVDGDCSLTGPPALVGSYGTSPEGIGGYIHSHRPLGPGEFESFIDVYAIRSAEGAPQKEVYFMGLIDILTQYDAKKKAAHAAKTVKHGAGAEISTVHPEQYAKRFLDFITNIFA
The protocol: as §1

The target of another experiment is RIPK2 (Homo sapiens, UniProt O43353). The protocol: as §1
A further experiment concerns the target RSK3 (Homo sapiens, UniProt Q15349). The protocol:
as §1

MAP2K6, sequence (P52564 whole entry): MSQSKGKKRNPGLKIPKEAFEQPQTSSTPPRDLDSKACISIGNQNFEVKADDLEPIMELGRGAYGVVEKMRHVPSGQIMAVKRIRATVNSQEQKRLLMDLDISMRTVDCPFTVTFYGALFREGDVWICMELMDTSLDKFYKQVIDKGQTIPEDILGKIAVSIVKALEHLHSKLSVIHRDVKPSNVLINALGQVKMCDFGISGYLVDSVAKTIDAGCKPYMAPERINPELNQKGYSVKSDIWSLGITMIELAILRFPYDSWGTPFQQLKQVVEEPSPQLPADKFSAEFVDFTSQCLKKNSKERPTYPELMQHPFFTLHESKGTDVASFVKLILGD
RSK3, sequence (Q15349 whole entry): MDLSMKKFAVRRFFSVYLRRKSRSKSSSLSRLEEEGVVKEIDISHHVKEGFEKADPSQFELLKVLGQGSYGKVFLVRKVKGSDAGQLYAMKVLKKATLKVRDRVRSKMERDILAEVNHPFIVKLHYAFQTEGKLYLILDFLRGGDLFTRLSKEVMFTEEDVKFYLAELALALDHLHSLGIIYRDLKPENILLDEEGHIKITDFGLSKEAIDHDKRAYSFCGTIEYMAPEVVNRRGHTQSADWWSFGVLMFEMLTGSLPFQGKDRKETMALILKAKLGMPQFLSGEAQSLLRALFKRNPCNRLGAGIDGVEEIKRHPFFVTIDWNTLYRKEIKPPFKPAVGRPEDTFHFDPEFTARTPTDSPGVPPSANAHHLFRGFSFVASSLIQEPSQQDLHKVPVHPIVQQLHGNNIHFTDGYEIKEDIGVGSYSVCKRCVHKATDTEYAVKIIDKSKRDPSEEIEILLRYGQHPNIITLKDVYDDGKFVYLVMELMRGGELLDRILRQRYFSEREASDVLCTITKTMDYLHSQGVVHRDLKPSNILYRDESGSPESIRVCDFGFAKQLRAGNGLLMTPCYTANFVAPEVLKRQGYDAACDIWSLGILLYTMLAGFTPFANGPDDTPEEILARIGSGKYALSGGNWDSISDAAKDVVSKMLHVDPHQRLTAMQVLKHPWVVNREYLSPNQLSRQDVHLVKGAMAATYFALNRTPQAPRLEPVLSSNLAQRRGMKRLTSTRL
AAK1, sequence (Q2M2I8 whole entry): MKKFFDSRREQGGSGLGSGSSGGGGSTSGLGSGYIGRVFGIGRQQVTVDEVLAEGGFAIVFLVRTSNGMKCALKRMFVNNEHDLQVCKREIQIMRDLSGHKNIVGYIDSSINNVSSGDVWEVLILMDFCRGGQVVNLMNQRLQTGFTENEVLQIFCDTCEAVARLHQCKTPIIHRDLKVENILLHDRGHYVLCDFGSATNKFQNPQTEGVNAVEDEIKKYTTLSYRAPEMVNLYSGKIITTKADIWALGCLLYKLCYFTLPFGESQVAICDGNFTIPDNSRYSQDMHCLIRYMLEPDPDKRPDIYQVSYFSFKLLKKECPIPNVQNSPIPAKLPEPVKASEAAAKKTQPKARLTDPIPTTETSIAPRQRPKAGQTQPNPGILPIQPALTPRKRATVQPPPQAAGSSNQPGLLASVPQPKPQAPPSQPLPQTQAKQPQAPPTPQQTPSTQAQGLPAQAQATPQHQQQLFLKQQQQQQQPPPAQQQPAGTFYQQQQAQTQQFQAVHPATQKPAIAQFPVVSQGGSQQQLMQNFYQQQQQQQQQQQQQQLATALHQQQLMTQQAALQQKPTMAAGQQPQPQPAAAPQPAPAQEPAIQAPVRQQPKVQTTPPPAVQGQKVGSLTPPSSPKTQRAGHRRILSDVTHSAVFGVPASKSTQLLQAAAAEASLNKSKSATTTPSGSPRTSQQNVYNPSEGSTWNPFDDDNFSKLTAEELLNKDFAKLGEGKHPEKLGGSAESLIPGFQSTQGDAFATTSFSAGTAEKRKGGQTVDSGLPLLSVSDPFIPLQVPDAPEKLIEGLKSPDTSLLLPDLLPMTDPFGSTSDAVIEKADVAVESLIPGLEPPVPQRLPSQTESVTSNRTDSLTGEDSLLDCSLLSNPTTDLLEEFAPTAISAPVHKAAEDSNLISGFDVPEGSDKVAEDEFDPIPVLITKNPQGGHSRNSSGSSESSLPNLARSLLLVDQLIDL
GSK3A, sequence (P49840 whole entry): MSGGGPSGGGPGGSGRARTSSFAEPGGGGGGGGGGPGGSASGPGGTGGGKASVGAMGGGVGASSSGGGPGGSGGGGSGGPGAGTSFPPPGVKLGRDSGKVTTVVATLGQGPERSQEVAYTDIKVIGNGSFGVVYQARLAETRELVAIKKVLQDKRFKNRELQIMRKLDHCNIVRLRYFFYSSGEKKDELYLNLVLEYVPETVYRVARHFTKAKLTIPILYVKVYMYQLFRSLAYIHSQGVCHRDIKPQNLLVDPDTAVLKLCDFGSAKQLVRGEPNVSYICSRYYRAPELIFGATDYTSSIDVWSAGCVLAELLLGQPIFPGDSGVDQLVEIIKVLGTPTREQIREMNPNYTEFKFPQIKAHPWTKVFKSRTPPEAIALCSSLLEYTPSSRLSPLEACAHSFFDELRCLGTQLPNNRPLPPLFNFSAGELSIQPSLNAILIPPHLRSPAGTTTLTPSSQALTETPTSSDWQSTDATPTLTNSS
RIPK2, sequence (O43353 whole entry): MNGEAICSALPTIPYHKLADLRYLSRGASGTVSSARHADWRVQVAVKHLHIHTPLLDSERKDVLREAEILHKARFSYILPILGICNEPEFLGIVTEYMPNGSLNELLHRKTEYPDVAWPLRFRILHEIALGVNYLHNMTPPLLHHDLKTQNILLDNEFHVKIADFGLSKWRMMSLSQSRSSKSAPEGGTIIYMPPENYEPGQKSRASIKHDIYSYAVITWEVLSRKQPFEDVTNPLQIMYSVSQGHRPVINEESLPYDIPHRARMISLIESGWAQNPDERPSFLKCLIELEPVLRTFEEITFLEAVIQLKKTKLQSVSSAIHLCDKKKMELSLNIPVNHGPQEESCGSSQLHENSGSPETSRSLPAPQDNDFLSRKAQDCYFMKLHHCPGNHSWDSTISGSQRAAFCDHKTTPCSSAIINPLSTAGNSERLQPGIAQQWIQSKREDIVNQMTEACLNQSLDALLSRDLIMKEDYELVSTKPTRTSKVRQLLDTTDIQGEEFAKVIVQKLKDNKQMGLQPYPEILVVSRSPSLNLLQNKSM
MAP3K4, sequence (Q9Y6R4 whole entry): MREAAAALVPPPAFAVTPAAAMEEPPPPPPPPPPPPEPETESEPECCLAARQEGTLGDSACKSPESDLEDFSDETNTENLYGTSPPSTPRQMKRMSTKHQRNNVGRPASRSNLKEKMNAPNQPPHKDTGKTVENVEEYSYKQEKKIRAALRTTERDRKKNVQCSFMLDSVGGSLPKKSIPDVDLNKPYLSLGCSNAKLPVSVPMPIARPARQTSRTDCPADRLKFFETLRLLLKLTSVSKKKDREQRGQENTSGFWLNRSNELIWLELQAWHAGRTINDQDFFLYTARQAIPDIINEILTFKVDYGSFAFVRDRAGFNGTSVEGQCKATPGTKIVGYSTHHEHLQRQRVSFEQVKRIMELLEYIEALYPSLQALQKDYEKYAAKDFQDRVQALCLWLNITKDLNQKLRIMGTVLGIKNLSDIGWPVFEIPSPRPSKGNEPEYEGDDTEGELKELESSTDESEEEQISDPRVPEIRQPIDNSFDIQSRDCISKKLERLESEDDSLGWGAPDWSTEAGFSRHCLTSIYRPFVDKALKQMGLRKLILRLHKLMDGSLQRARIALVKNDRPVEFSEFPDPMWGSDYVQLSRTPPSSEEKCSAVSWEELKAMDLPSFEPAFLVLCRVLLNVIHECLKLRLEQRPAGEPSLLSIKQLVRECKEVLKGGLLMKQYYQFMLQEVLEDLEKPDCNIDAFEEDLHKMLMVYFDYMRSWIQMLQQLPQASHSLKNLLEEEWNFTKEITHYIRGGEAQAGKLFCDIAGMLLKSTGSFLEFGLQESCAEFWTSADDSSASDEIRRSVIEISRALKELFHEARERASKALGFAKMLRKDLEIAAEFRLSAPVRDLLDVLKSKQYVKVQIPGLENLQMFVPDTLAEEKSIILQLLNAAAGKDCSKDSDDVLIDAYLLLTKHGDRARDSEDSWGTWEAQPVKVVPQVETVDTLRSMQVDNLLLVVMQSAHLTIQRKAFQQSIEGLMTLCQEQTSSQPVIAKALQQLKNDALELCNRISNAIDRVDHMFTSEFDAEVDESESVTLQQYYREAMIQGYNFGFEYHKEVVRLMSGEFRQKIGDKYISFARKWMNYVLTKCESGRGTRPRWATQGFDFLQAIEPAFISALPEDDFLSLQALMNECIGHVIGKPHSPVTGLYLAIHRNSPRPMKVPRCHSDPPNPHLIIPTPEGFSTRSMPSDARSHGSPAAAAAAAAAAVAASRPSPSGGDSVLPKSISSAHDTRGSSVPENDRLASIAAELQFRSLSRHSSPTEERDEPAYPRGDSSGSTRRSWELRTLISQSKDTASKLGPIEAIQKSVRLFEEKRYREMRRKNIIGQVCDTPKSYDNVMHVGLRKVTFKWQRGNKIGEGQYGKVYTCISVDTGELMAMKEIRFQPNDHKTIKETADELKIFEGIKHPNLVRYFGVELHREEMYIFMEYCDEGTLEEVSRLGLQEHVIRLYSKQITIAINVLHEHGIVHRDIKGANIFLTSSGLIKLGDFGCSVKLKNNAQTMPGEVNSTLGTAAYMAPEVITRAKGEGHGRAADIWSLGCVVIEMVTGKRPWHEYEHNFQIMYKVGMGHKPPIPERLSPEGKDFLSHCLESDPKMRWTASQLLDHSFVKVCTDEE

Take `CS(=O)(=O)Nc1ccccc1Nc1nc(Nc2cccc(OCCN)c2)ncc1Cl` [CZC31326, N-(2-(2-(3-(2-aminoethoxy)phenylamino)-5-chloropyrimidin-4-ylamino)phenyl)methanesulfonamide]: the inhibition at 10 µM at AAK1 stood at 94.5%; on DNAPK, 69.2%; at GSK3A it was 93.7%; on IKKe it was 89.7%; on MAP2K6, 89.2%; at MAP3K4 it was 92.2%. In addition, the inhibition at 10 µM on NEK3 was determined as 94.8%; at PAK4 it was 94.2%; on PIP5K2C, 95.4%; at RIPK2 it was 92.2%; on RSK3, 94.8%.

Broadly, the inhibition is the share of the control response that was lost under treatment. A lower inhibition goes with a weak effect.

The record behind these values is patent publication US20120270237A9, “METHODS FOR THE IDENTIFICATION OF KINASE INTERACTING MOLECULES AND FOR THE PURIFICATION OF KINASE PROTEINS” (Cellzone AG, priority 2009, published 2012).
